± gives the expanded uncertainty stated by the source.
Settings: Liquid; for mass density: Vibrating tube method; for viscosity: Concentric cylinders viscometry

CCCC[n+]1ccc(C)cc1.F[B-](F)(F)F [1-butyl-4-methylpyridinium tetrafluoroborate]
Settings	mass density [kg/m3]	viscosity [mPa·s]
278.16 K, 101.33 kPa	1202.41 ± 2.7	–
283.13 K, 2389 kPa	1200.77 ± 2.2	–
283.14 K, 99418 kPa	1237.54 ± 2.9	–
283.15 K, 101.33 kPa	–	765.72 ± 41
283.15 K, 60042 kPa	1223.77 ± 2.6	–
283.15 K, 79648 kPa	1230.82 ± 2.7	–
283.15 K, 89923 kPa	1234.36 ± 2.8	–
283.16 K, 49953 kPa	1219.99 ± 2.5	–
283.16 K, 69924 kPa	1227.37 ± 2.6	–
283.17 K, 101.33 kPa	1198.9 ± 2.7	–
283.17 K, 20156 kPa	1208.22 ± 2.3	–
283.17 K, 29957 kPa	1212.19 ± 2.4	–
283.17 K, 39808 kPa	1216.08 ± 2.5	–
283.2 K, 5533 kPa	1202.11 ± 2.3	–
283.2 K, 10148 kPa	1204.06 ± 2.3	–
293.13 K, 2593 kPa	1194.15 ± 2.2	–
293.14 K, 99354 kPa	1231.77 ± 2.8	–
293.15 K, 101.33 kPa	–	338.59 ± 16
293.15 K, 69958 kPa	1221.46 ± 2.6	–
293.15 K, 79965 kPa	1225.08 ± 2.7	–
293.15 K, 90001 kPa	1228.6 ± 2.8	–
293.16 K, 101.33 kPa	1191.79 ± 2.6	–
293.16 K, 5220 kPa	1195.31 ± 2.2	–
293.16 K, 49933 kPa	1213.87 ± 2.5	–
293.16 K, 59929 kPa	1217.71 ± 2.6	–
293.17 K, 10236 kPa	1197.5 ± 2.3	–
293.17 K, 19941 kPa	1201.67 ± 2.3	–
293.17 K, 29914 kPa	1205.84 ± 2.4	–
293.17 K, 39693 kPa	1209.82 ± 2.4	–
298.13 K, 101.33 kPa	1188.41 ± 2.6	–
298.15 K, 101.33 kPa	–	236.97 ± 11
298.15 K, 1003 kPa	1190.06 ± 2.2	–
298.15 K, 5005 kPa	1191.86 ± 2.2	–
298.15 K, 10002 kPa	1194.09 ± 2.3	–
298.15 K, 19998 kPa	1198.45 ± 2.3	–
298.15 K, 29945 kPa	1202.67 ± 2.4	–
298.15 K, 39923 kPa	1206.79 ± 2.4	–
298.15 K, 49991 kPa	1210.83 ± 2.5	–
298.15 K, 60002 kPa	1214.72 ± 2.5	–
298.15 K, 70001 kPa	1218.49 ± 2.6	–
298.15 K, 79994 kPa	1222.14 ± 2.7	–
298.15 K, 90002 kPa	1225.68 ± 2.8	–
298.15 K, 99998 kPa	1229.1 ± 2.8	–
303.15 K, 101.33 kPa	–	171.04 ± 7.5
313.13 K, 101.33 kPa	1178.11 ± 2.6	–
313.15 K, 101.33 kPa	–	96.18 ± 4
313.15 K, 59740 kPa	1205.47 ± 2.5	–
313.16 K, 2707 kPa	1180.63 ± 2.2	–
313.16 K, 20303 kPa	1188.77 ± 2.3	–
313.16 K, 29913 kPa	1193.03 ± 2.3	–
313.16 K, 49943 kPa	1201.51 ± 2.5	–
313.16 K, 69933 kPa	1209.44 ± 2.6	–
313.16 K, 89952 kPa	1216.83 ± 2.7	–
313.16 K, 99473 kPa	1220.15 ± 2.8	–
313.17 K, 5339 kPa	1181.88 ± 2.2	–
313.17 K, 10173 kPa	1184.14 ± 2.2	–
313.17 K, 39937 kPa	1197.34 ± 2.4	–
313.17 K, 79710 kPa	1213.11 ± 2.6	–
323.15 K, 101.33 kPa	–	58.53 ± 2.4
333.13 K, 1547 kPa	1166.3 ± 2.2	–
333.13 K, 39448 kPa	1184.41 ± 2.4	–
333.14 K, 101.33 kPa	1164.59 ± 2.6	–
333.14 K, 49914 kPa	1188.99 ± 2.4	–
333.14 K, 60043 kPa	1193.26 ± 2.5	–
333.15 K, 101.33 kPa	–	38.29 ± 1.6
333.15 K, 5146 kPa	1168.12 ± 2.2	–
333.15 K, 29917 kPa	1180.08 ± 2.3	–
333.15 K, 69942 kPa	1197.26 ± 2.5	–
333.16 K, 19866 kPa	1175.35 ± 2.2	–
333.16 K, 79463 kPa	1200.96 ± 2.6	–
333.16 K, 89996 kPa	1204.89 ± 2.6	–
333.17 K, 9837 kPa	1170.46 ± 2.2	–
333.17 K, 99595 kPa	1208.3 ± 2.7	–
343.14 K, 101.33 kPa	1157.92 ± 2.5	–
343.15 K, 101.33 kPa	–	26.48 ± 1.1
353.13 K, 59133 kPa	1180.36 ± 2.4	–
353.14 K, 2498 kPa	1152.85 ± 2.1	–
353.14 K, 5035 kPa	1154.22 ± 2.1	–
353.14 K, 9690 kPa	1156.69 ± 2.2	–
353.14 K, 20367 kPa	1162.21 ± 2.2	–
353.14 K, 29942 kPa	1166.97 ± 2.3	–
353.14 K, 39870 kPa	1171.71 ± 2.3	–
353.14 K, 49991 kPa	1176.35 ± 2.4	–
353.14 K, 70001 kPa	1184.93 ± 2.5	–
353.15 K, 101.33 kPa	–	19.17 ± 0.79
353.15 K, 89993 kPa	1192.71 ± 2.6	–
353.16 K, 79945 kPa	1188.9 ± 2.5	–
353.16 K, 98529 kPa	1195.8 ± 2.6	–
363.15 K, 101.33 kPa	–	14.41 ± 0.6
373.13 K, 59930 kPa	1168.03 ± 2.4	–
373.14 K, 2866 kPa	1138.93 ± 2.1	–
373.14 K, 40385 kPa	1158.91 ± 2.3	–
373.14 K, 49993 kPa	1163.5 ± 2.3	–
373.14 K, 69984 kPa	1172.37 ± 2.4	–
373.15 K, 101.33 kPa	–	11.19 ± 0.46
373.15 K, 5031 kPa	1140.17 ± 2.1	–
373.15 K, 29936 kPa	1153.67 ± 2.2	–
373.15 K, 79614 kPa	1176.31 ± 2.5	–
373.15 K, 90002 kPa	1180.33 ± 2.5	–
373.15 K, 99124 kPa	1183.64 ± 2.6	–
373.16 K, 9772 kPa	1142.85 ± 2.1	–
373.17 K, 20168 kPa	1148.55 ± 2.2	–
393.14 K, 99382 kPa	1171.13 ± 2.5	–
393.15 K, 10459 kPa	1129.2 ± 2.1	–
393.15 K, 20029 kPa	1134.74 ± 2.1	–
393.15 K, 90001 kPa	1167.72 ± 2.5	–
393.16 K, 2068 kPa	1124.13 ± 2.1	–
393.16 K, 5306 kPa	1126.11 ± 2.1	–
393.16 K, 29942 kPa	1140.22 ± 2.2	–
393.17 K, 39803 kPa	1145.4 ± 2.2	–
393.17 K, 49942 kPa	1150.46 ± 2.3	–
393.17 K, 70000 kPa	1159.64 ± 2.4	–
393.17 K, 80173 kPa	1163.89 ± 2.4	–
393.18 K, 59764 kPa	1155.09 ± 2.3	–

— the NIST ThermoML archive (doi:10.1016/j.jct.2012.02.018)
